Assay results: patent publication US12414919B2, “Method for preparing biocompatible polymer-based apixaban-loaded microspheres” (HLB PHARMACEUTICAL CO., LTD., priority 2019, dated 2025)

Tests used:
[1] = Dissolution of Apixaban in non-halogen organic solvents; format: physicochemical; conditions: 25 mg Apixaban in 1 mL of each of ethyl acetate, ethyl formate, methyl propionate, ethanol; stirred
Description: 25 mg of Apixaban was added to 1 mL of each of ethyl acetate, ethyl formate, methyl propionate, and ethanol and stirred. As a result, it was confirmed that Apixaban was not dissolved in the four organic solvents (FIG. 1).

[2] = oral administration; cited from earlier work
[3] = Dissolution of Apixaban in halogen organic solvent (dichloromethane); format: physicochemical; conditions: 25 mg Apixaban in 1 mL dichloromethane, after 12 hours
Description: 25 mg of Apixaban was dissolved in 1 mL, of dichloromethane, and the mixture was photographed after 12 hours.

Dissolution of Apixaban in non-halogen organic solvents [1]: not dissolved
Dissolution / recrystallization of Apixaban in dichloromethane [3]: Apixaban crystals were formed
SMILES: COc1ccc(-n2nc(C(N)=O)c3c2C(=O)N(c2ccc(N4CCCCC4=O)cc2)CC3)cc1 [Apixaban]
bioavailability [2]: about 50%
